Test results published in US20220265629A1, “TREATMENT OF SYSTOLIC DYSFUNCTION AND HEART FAILURE WITH REDUCED EJECTION FRACTION WITH THE COMPOUND (R)-4-(1-((3-(DIFLUOROMETHYL)-1-METHYL-1H-PYRAZOL-4-YL)SULFONYL)-1-FLUOROETHYL)-N-(ISOXAZOL-3-YL)PIPERIDINE-1-CARBOXAMIDE” (MyoKardia, Inc., priority 2019, published 2022).

Tested on: patients with stable HFrEF
Test: HFrEF study Part 1 (SAD Cohorts 1 and 2): TTE pharmacodynamics by plasma concentration group
Format: in vivo, human
Conditions: for A wave peak change from baseline, placebo-corrected (LS mean difference) / E wave peak change from baseline, placebo-corrected (LS mean difference) / E/A ratio change from baseline, placebo-corrected (LS mean difference) / E/e′ lateral change from baseline, placebo-corrected (LS mean difference) / LVEDD change from baseline, placebo-corrected (LS mean difference) / LVEDV change from baseline, placebo-corrected (LS mean difference) / LVEF change from baseline, placebo-corrected (LS mean difference) / LVESD change from baseline, placebo-corrected (LS mean difference) / LVESV change from baseline, placebo-corrected (LS mean difference) / LVFS change from baseline, placebo-corrected (LS mean difference) / LVGLS change from baseline, placebo-corrected (LS mean difference) / LVSV change from baseline, placebo-corrected (LS mean difference) / SET change from baseline, placebo-corrected (LS mean difference) / e′ lateral change from baseline, placebo-corrected (LS mean difference): pooled SAD Cohorts 1 and 2
Experimental: PD assessment was done by transthoracic echocardiography as described in Example 1 above. TTE evaluations of LVSV (derived from LVOT-VTI), LVEF, LVFS, SET, and other parameters were PD assessments at predetermined time points. The patients were on bed rest for 10 minutes before the TTEs were obtained. In Part 2 (MAD), TTEs were usually obtained before the morning close and/or at 7 hours postclose (i.e., close to the anticipated peak effect based on the PK profile from the healthy volunteer studies).
For both Cohorts 1 and 2, the pharmacodynamic effects of Compound I on echocardiographic markers of cardiac structure and function were analyzed by Compound I plasma concentration groups: <2000 ng/mL (low concentration group) and >2000 ng/mL (high concentration group) (Table 12).

[1] = high plasma concentration group (≥2000 ng/mL)

**Q.** Which results are given for `Cn1cc(S(=O)(=O)[C@@](C)(F)C2CCN(C(=O)Nc3ccon3)CC2)c(C(F)F)n1` [Compound I, (R)-4-(1-((3-(difluoromethyl)-1-methyl-1H-pyrazol-4-yl)sulfonyl)-1-fluoroethyl)-N-(isoxazol-3-yl)piperidine-1-carboxamide]?
**A.** SET prolongation in one patient (350 mg, 1.5 and 3 h postdose): ~63 ms; Mean SET prolongation for all patients (350 mg, 3 to 9 hours postdose): 16.2 ms; SET prolongation in one patient (350 mg, 6 and 9 hours postdose): < 35 ms; increase in SET (SAD cohorts): < 50 ms; relative increases from baseline in cardiac contractility (SV, LVEF, FS) (SAD cohorts): approximately 10%; LV ejection fraction, mean (SE) increase from baseline [1]: 4.4%; LV global longitudinal strain, mean (SE) decrease [1]: −2.1%; A wave peak change from baseline, placebo-corrected (LS mean difference) (plasma <2000 ng/mL): -3.2 cm/s; E wave peak change from baseline, placebo-corrected (LS mean difference) (plasma <2000 ng/mL): -1.1 cm/s; E/A ratio change from baseline, placebo-corrected (LS mean difference) (plasma <2000 ng/mL): 0.09; E/e′ lateral change from baseline, placebo-corrected (LS mean difference) (plasma <2000 ng/mL): 0.6; LVEDD change from baseline, placebo-corrected (LS mean difference) (plasma <2000 ng/mL): 0.2 mm; LVEDV change from baseline, placebo-corrected (LS mean difference) (plasma <2000 ng/mL): -2.5 mL; LVEF change from baseline, placebo-corrected (LS mean difference) (plasma <2000 ng/mL): 4.1%; LVESD change from baseline, placebo-corrected (LS mean difference) (plasma <2000 ng/mL): −1.3 mm; LVESV change from baseline, placebo-corrected (LS mean difference) (plasma <2000 ng/mL): -4.0 mL; LVFS change from baseline, placebo-corrected (LS mean difference) (plasma <2000 ng/mL): 3.1%; LVGLS change from baseline, placebo-corrected (LS mean difference) (plasma <2000 ng/mL): −1.1%; LVSV change from baseline, placebo-corrected (LS mean difference) (plasma <2000 ng/mL): 1.0 mL; SET change from baseline, placebo-corrected (LS mean difference) (plasma <2000 ng/mL): 8 ms; e′ lateral change from baseline, placebo-corrected (LS mean difference) (plasma <2000 ng/mL): -1 cm/s; A wave peak change from baseline, placebo-corrected (LS mean difference) (plasma ≥2000 ng/mL): -8.8 cm/s; E wave peak change from baseline, placebo-corrected (LS mean difference) (plasma ≥2000 ng/mL): -1.6 cm/s; E/A ratio change from baseline, placebo-corrected (LS mean difference) (plasma ≥2000 ng/mL): 0.08; E/e′ lateral change from baseline, placebo-corrected (LS mean difference) (plasma ≥2000 ng/mL): 0.2; LVEDD change from baseline, placebo-corrected (LS mean difference) (plasma ≥2000 ng/mL): −0.3 mm; LVEDV change from baseline, placebo-corrected (LS mean difference) (plasma ≥2000 ng/mL): -1.9 mL; LVEF change from baseline, placebo-corrected (LS mean difference) (plasma ≥2000 ng/mL): 4.4%; LVESD change from baseline, placebo-corrected (LS mean difference) (plasma ≥2000 ng/mL): −1.8 mm; LVESV change from baseline, placebo-corrected (LS mean difference) (plasma ≥2000 ng/mL): -3.5 mL; LVFS change from baseline, placebo-corrected (LS mean difference) (plasma ≥2000 ng/mL): 2.8%; LVGLS change from baseline, placebo-corrected (LS mean difference) (plasma ≥2000 ng/mL): −2.1%; LVSV change from baseline, placebo-corrected (LS mean difference) (plasma ≥2000 ng/mL): 9.0 mL; SET change from baseline, placebo-corrected (LS mean difference) (plasma ≥2000 ng/mL): 36 ms; e′ lateral change from baseline, placebo-corrected (LS mean difference) (plasma ≥2000 ng/mL): -1 cm/s
